Patent US10125097B2, “1- [1-(benzoyl)-pyrrolidine-2-carbonyl]-pyrrolidine-2-carbonitrile derivatives” (UNIVERSITAT DE BARCELONA, priority 2012, dated 2018)

Target: human prolyl oligopeptidase (Homo sapiens (Human), UniProt P48147)
Assay: POP inhibition assay (Z-G-P-AMC substrate, fluorimetric)
Format: biochemical
Details: 100 mM Na/K phosphate buffer, pH 8.0, hPOP 20 to 60 nM, Z-G-P-AMC, 1 hour at 37° C.; read-out: IC50, inhibition of human prolyl oligopeptidase
Method: Expression and Purification of Prolyl Oligopeptidase (POP)
POP was obtained by expression in E. coli and affinity purification using a His tail fusion according to a literature procedure (Tarragó T et al., ChemBioChem 2006; 7:827-33) summarized below:
hPOP expression: E. coli BL21 competent cells were transformed with pETM10 hPOP. To induce expression, a pre-culture of LB medium (50 mL) containing kanamycin (50 μg/mL) was inoculated with one colony and was grown overnight at 37° C. Next day, two cultures of LB medium (500 mL) were inoculated with the overnight culture (10 mL). The inoculated cultures were grown at 37° C. and 220 rpm until the OD595 was 1.2 (2.5-3 hours). IPTG was then added (final concentration of 1 mM) and induction was performed overnight at 25° C. Cells were harvested (3500 g, 15 min, 4° C.) and the pellet was suspended in suspension buffer (50 mL) [Tris-HCl pH 8 (50 mM), NaCl (300 mM), imidazole (1 mM)] and sonicated with use of four cycles (each consisting of 15 sec of sonication and 15 sec of rest) at an intensity of 50% and 0.5 pulses, the sample being kept on ice. After sonication, the sample was centrifuged (40 000 g, 30 min, 4° C.) and the supernatant was used immediately for POP purification. An ÁKTA explorer FPLC system was used for purification. The supernatant was applied at a flow of 1 mL/min to a HiTrapQuelating column (5 mL) previously equilibrated with 5 column volumes of suspension buffer. The column was washed with suspension buffer until the absorbance at 280 nm returned to basal level. The column was then rinsed with 5 volumes of washing buffer (50 mM Tris-HCl, pH 8, 300 mM NaCl, 30 mM imidazole). The elution was performed with 4 volumes of elution buffer (50 mM Tris-HCl, pH 8, 300 mM NaCl, 500 mM imidazole). Fractions (4 mL) were collected during the entire elution. POP activity was checked in all fractions and positive ones were analyzed by SDS-PAGE and stained with Biosafe Comassie Stain G-250. Positive fractions were collected and desalted by use of a HiPrep 26/10 Desalting column with Tris-HCl (50 mM, pH 8) as buffer. Recombinant hPOP was quantified with the Bio-Rad Protein Assay with BSA as standard. Aliquots of the recombinant enzyme were prepared and immediately frozen with liquid nitrogen and stored at −80° C.
POP activity was determined following the method described by Toide et al (Toide K et al., J. Pharmacol. Exp. Ther. 1995; 274:1370-8), using Z-G-P-AMC (N-benzyloxycarbonyl-Gly-Pro-methylcoumarinyl-7-amide) as POP substrate. The reactions were performed in 96-well microtiter plates, which allowed simultaneous monitoring of multiple reactions. For each reaction, activity buffer (134 μl, 100 mM Na/K phosphate buffer, pH 8.0) was pre-incubated for 15 min at 37° C. with hPOP (ranging from 20 to 60 nM, depending on the activity of the hPOP batch) and the corresponding new compound solution (3 μl). A stock solution of new compound was prepared in DMSO (100 mM), and dilutions were prepared from this stock solution with DMSO. Alternatively, the reactions were performed using another activity buffer (141 μL, 100 mM Tris-acetate, […], 1 mM DTT, pH 7.3), pre-incubating with hPOP (10 nM) and the corresponding new compound solution (3 μl) (Conditions B).
After preincubation, Z-G-P-AMC (10 μl, 3 mM in 40% 1,4-dioxane) was added (3 μl, 1.5 mM in 40% of 1,4-dioxane, in Conditions B), and the reaction was incubated for 1 hour at 37° C. The reaction was stopped by adding sodium acetate (150 μl, 1 M, pH 4) and the formation of AMC was measured fluorimetrically. The excitation and emission wavelengths were 360/40 and 485/20 nm, respectively.
Several concentration points (ranging from 25 μM to 400 μM) were measured for each compound. The inhibitory activity on prolyl oligopeptidase was calculated according to eq 1. For each new compound, the fluorescence in the presence (a) and in the absence of hPOP (b) was measured. […]

human prolyl oligopeptidase, sequence (P48147 whole entry): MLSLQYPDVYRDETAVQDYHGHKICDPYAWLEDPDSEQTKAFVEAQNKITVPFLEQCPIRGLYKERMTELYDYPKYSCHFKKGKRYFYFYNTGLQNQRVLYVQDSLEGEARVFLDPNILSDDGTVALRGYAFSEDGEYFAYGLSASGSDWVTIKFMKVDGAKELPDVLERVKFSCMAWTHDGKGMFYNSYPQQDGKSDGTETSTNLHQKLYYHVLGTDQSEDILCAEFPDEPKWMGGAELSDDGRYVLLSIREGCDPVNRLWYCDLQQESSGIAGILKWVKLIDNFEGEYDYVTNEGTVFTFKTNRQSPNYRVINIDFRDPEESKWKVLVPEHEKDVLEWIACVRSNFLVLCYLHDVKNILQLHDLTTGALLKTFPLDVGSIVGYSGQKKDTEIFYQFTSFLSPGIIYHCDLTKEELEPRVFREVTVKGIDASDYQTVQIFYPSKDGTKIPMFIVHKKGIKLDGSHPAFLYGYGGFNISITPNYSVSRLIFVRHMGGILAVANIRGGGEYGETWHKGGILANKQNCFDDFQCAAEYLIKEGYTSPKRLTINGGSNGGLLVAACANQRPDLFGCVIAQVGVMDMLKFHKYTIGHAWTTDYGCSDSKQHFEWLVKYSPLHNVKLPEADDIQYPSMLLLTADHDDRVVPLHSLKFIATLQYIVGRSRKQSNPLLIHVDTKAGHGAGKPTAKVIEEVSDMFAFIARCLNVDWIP

SMILES: COc1cc(C(=O)N2CC(F)(F)C[C@H]2C(=O)N2CCC[C@H]2C#N)cc(OC)c1OCc1ccccc1 [Example 4, (S)-1-((2S)-1-(4-(benzyloxy)-3,5-dimethoxybenzoyl)-4,4-difluoropyrrolidine-2-carbonyl)pyrrolidine-2-carbonitrile]
- IC50: 48.7 nM
